Measurements published in US5053006A, “Method for the permanent occlusion of arteries” (priority 1990, dated 1991).

Experiments:
common carotid artery = assay: Argon laser photothrombotic occlusion of common carotid artery (Example 1); assay type: in vivo, rat (male Wistar); details: 514.5 nm argon laser
From the text: (§1) Male Wistar rats, each weighing 280 to 330 gm, were anesthetized with 1.5% halothane and maintained on a 70:30 mixture of nitrous oxide and oxygen delivered by a closely fitting Mylar face mask (Watson et al., J. Neurosurg., 66:748-754, 1987, the disclosure of which is hereby incorporated by reference and relied upon). After separation of the temporal musculature, the middle cerebral artery was exposed via a small subtemporal craniectomy produced by a high-speed drill under an operating microscope; the dura was left intact. The common carotid arteries were exposed bilaterally by a midline incision extending from the mental process to the sternal notch; the sternocleidomastoid muscle was then retracted laterally to expose the underlying artery. Bleeding from the operative site was controlled with pressure and Gelfoam. The animal was then prepared for irradiation by filling the surgical cavity with saline, just submerging the exposed blood vessel. The saline solution was kept clear by frequent suction and irrigation. The femoral arteries were exposed by bilateral inguinal incisions and were prepared for irradiation in a fashion similar to that described above.
As assessed by observation of rose bengal fluorescence, thrombus development in the common carotid or femoral arteries followed a course similar to that observed in the middle cerebral artery, except that the thrombus appeared as a […] as viewed through the blood vessel wall. Intense scattering of the incident laser light was also noted at about the time that arterial pulsations at the level of irradiation ceased.
Ultrastructural studies were carried out at either 30 minutes or 7 days following irradiation. Animals were perfused transcardially with 0.9% sodium chloride solution followed by 2% paraformaldehyde and 2.5% glutaraldehyde in a 0.1 M sodium phosphate buffer. Perfusion pressure was monitored throughout the procedure and was maintained at 100 mm Hg. After perfusion fixation, the femoral and common carotid arteries were isolated and placed in fixative for an additional 2 hours. […]

middle cerebral artery [1] = assay: Argon laser photothrombotic occlusion of middle cerebral artery (Example 1); assay type: in vivo, rat (male Wistar)
From the text: as §1
Thrombus development and subsequent occlusion of the middle cerebral artery were easily observed during irradiation owing to wall transparency. The irradiated segment emitted a bright orange fluorescence (as viewed through an interference filter which rejected the 514.5 nm argon line); this was attributed to rose bengal uptake by red blood cell membranes and binding to plasma proteins such as albumin. As the irradiation proceeded, the fluorescence became yellowish and less intense owing to the accumulation of platelets and exclusion of red blood cells from the developing thrombus. Complete occlusion was signaled by exclusion of red blood cells from the arterial segments both distal and proximal to the irradiated portion, leaving a single colorless segment 7 to 10 arterial diameters in length.
Ultrastructural studies were carried out at either 30 minutes or 7 days following irradiation. Animals were perfused transcardially with 0.9% sodium chloride solution followed by 2% paraformaldehyde and 2.5% glutaraldehyde in a 0.1 M sodium phosphate buffer. Perfusion pressure was monitored throughout the procedure and was maintained at 100 mm Hg. After perfusion fixation, the femoral and common carotid arteries were isolated and placed in fixative for an additional 2 hours. To isolate the middle cerebral artery, the brain was first removed from the cranial vault and placed in fixative for a 2-hour period. Next, the whole brain was placed in phosphate-buffered 1% osmium tetroxide for 2 minutes.
The blood vessels were then postfixed in Millonig's phosphate-buffered 1% osmium tetroxide for 1 hour. Specimens chosen for transmission electron microscopy were dehydrated in ethanol and propylene oxide and embedded in Poly-Bed 812 as previously described (Dietrich et al., J Neuropathol. Exp. Neurol., 43:72-83, 1984). Sections 1 μm thick were cut with glass knives on a Sorvall ultra-microtome and stained with toluidine blue. To characterize the occlusive material more completely, ultra-thin sections stained with uranyl acetate and lead citrate were examined with a Zeiss EM-10C electron microscope. The blood vessels chosen for scanning electron microscopy analysis were examined under a dissecting microscope and cut longitudinally with a scalpel blade to expose the luminal surface. The blood vessels were then dehydrated in graded ethanols and placed in Freon. The tissue was critical-point dried, coated with gold, and examined and photographed with a JEOL JSM-35C scanning electron microscope.

fibrinogen = assay: Immunofluorescence study of thrombus composition, fibrinogen; set-up: species or system rat
Description: (§2) Following incubation with primary antibody for one hour, FITC-conjugated goat anti-mouse IgG and goat anti-mouse IgG antibodies (Sigma Chemical Co., St. Louis, Mo.) were used as secondary antibodies for anti-fibrinogen and anti-Factor VIII, respectively. The sections were observed by epi-illumination with a Nikon Microphot-FX microscope.

[2] = system: conjunctival epithelium on vascularized corneas; assay: Epithelial differentiation on photothrombosed corneas (goblet cells, cytology, histology); assay type: in vivo, New Zealand albino rabbit
Description: In order to study the goblet cell density on the vascularized corneas before and after photothrombosis, corneal flat-mounts were prepared and stained according to usual methods (Tseng et al., Invest. Opthalmol. Vis. Sci., 25:1168-76, 1984). The pattern of goblet cell disappearance was then analyzed and specifically correlated with the treated area.
(§3) The epithelial phenotype of the control and treated corneas was then studied by impression cytology (Tseng, Ophthalmology, 92:728-33, 1985) and routine histology using hematoxylin and PAS. In addition, immunofluorescent stainings of the frozen sections using a previously developed anti-rabbit ocular mucin monoclonal antibody [anti-ROM] was performed to study mucin expression.

[3] = Absorption / excitation of the dye in tissue; assay type: physicochemical
From the text: Examples of lasers that can be used to provide the light beam include the He-Ne laser, the argon ion laser and the argon-pumped dye laser. The 543.5 nm He-Ne laser, for example, can excite rose bengal with an efficiency of 58% of the maximum. (The wavelength at which excitation efficiency for rose bengal is maximal in tissue occurs at 562 nm.) Because the maximum theoretical power output is only 4 or 5 milliwatts, the 543.5 nm He-Ne laser is not used in clinical applications at this time. However, this laser is expected to be particularly useful in permanently occluding relatively low-flow arteries, smaller than about 200 μm, such as those in the choroid of the eye.
The argon ion laser is the most common clinical laser used at this time. Although the commonly used argon 514.5 nm line is only 36% efficient with respect to the maximum of rose bengal absorption, this laser is much more powerful (by at least a factor of 1000) and versatile than the He-Ne laser.
The absorption maximum of erythrosin B in endothelial tissue is at 536 nm, which is closer than that of rose bengal to the standard 514.5 nm wavelength of the argon ion laser.

rabbit ocular mucin = assay: Immunofluorescence of mucin expression with anti-ROM antibody; assay type: in vivo
Description: as §3
To further confirm the transition of epithelial differentiation, a monoclonal antibody against rabbit ocular mucin [anti-ROM] was used to examine the expression of mucin, the major product of goblet cells.

Factor VIII = assay: Immunofluorescence study of thrombus composition, Factor VIII; set-up: species or system rat
Description: as §2

middle cerebral artery [4] = system: middle cerebral artery
Description: In order to conduct irradiation of the rat middle cerebral artery at normal blood pressure, oral intubation was performed and mechanical ventilation was initiated after paralysis with pancuronium bromide. The rat was then placed on a tiltable stereotaxic frame, and the middle cerebral artery was exposed through a subtemporal approach. The right temporalis musculature was reflected anteriorally, and a 2×2 mm subtemporal craniotomy was carried out with the aid of a high-speed drill under a dissecting microscope, leaving the middle cerebral artery exposed and the dura intact at the level of the olfactory tract. Rose bengal dye (2 mg in 0.133 ml saline per 100 g animal weight) was administered intravenously, resulting in a blood concentration of 340 μM.
The right middle cerebral artery, at a point just distal to the olfactory branches, was irradiated with the beam of a tunable argon ion laser (Lexel Model 95, Cooper LaserSonics, Santa Clara, CA), operated at 514.5 nm in the continuous mode at a power level of 50 mW. The beam was focused longitudinally onto the middle cerebral artery with two cylindrical lenses, both of 30 cm focal length. […] During irradiation, the irradiated segment appeared orange, owing to rose bengal fluorescence in the flowing blood stream. […]

[5] = in vivo; cited from earlier work

O=C([O-])c1c(Cl)c(Cl)c(Cl)c(Cl)c1-c1c2cc(I)c(=O)c(I)c-2oc2c(I)c([O-])c(I)cc12.[Na+].[Na+] [rose bengal]
complete occlusion, irradiation time (common carotid artery; 40 mg/kg i.v.): ≤ 3 min
energy fluence at occlusion (common carotid artery): about 35 kJ/sq cm
total energy deposited at occlusion (common carotid artery): 140 to 180 joules (J)
length of colorless occluded segment (middle cerebral artery [1]; complete occlusion): 7 to 10 arterial diameters
recanalization on saline bolus (middle cerebral artery [1]; five minutes after completion of irradiation): no recanalization was observed
energy fluence (middle cerebral artery [1]; rat, in vivo): ~3.5 kJ/sq cm
total energy deposited (middle cerebral artery [1]; rat, in vivo): approximately 1 J
thrombus composition (middle cerebral artery [1]; ultrastructural analysis): composed primarily of aggregated platelets
irradiation time to effect complete occlusion (middle cerebral artery [1]; very low incident intensity): ≤ 3 min
fibrinogen in photoinduced MCA thrombi (fibrinogen): abundance
goblet cells on the cornea ([2]; four weeks): no goblet cells were noted
histology of epithelium ([2]; four weeks): stratified cornea-like epithelium
goblet cell density, cytology ([2]; one week): decreased goblet cell density
epithelial N/C ratio ([2]; one week, impression cytology): slight increase
goblet cell density ([2]; treated areas, four days): remarkably decreased
excitation efficiency relative to maximum of absorption ([3]; 514.5 nm argon line): 36%
excitation efficiency relative to maximum ([3]; 543.5 nm He-Ne laser): 58%
gain in efficiency of endothelial photosensitization, factor ([3]; argon-pumped dye laser (562 nm) over 514.5 nm argon line): ≥ 3
wavelength of maximal excitation efficiency / absorption maximum in tissue ([3]; in tissue): 562 nm
mucin in epithelium of occluded corneas (rabbit ocular mucin; four weeks): complete absence
expression of mucin antigen (rabbit ocular mucin; with time after vessel occlusion): diminish gradually with time
Factor VIII in photoinduced MCA thrombi (Factor VIII): abundance
irradiation time (middle cerebral artery [4]; 2 mg per 100 g i.v., 50 mW, 514.5 nm): ~5 min
occluded segment length (middle cerebral artery [4]; rat, in vivo): approximately 1 mm
pH of isotonic saline solution (15 mg/ml): 6.80
highest concentration which could be achieved practically (normal saline): 100 mg/mL
disappearance through the feces [5]: 3 days
